From patent US10106522B2, “Benzimidazole derivatives as antihistamine agents” (Faes Farma, S.A., priority 2014, dated 2018) come the findings set out here.

The structures appear in SMILES notation. pIC50: −log10 of the molar value.

Sequence of human histamine H1-receptor (P35367 whole entry): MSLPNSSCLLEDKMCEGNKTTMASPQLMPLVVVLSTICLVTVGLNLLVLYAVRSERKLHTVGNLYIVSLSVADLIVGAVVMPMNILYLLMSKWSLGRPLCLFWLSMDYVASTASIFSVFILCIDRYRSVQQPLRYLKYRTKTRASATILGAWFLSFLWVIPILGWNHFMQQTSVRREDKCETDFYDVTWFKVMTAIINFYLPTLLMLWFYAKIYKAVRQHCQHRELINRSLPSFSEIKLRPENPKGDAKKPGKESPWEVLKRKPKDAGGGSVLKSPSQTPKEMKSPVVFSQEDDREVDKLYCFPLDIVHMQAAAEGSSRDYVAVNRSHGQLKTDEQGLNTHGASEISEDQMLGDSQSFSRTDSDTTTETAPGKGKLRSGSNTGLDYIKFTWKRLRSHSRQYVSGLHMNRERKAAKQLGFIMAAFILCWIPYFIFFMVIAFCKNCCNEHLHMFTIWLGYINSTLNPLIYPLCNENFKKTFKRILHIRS

One test addresses human histamine H1-receptor (Homo sapiens (Human), UniProt P35367). Kind of test: Affinity for histamine H1-receptor: 3H-pyrilamine binding to membranes of CHO cells transfected with the human H1 receptor. Particulars: comparative compounds from the state of the art; same protocol; read-out: IC50, affinity for human histamine H1-receptor for comparative compounds. As for the experimental part: Affinity for histamine H1-receptor was determined by binding studies to H1 receptors. The sample used is a suspension of membranes of CHO cells transfected with the human H1 receptor (5 mg/ml, PerkinElmer), stored at −80° C. until use. After thawing, the membranes were homogenized in assay buffer (50 mM Na/K phosphate) prepared in purified water and kept at room temperature (pH 7.4). The assay was performed in 96-well microplates. In each well, 25 μl of buffer and 25 μl of vehicle (total binding) or 10 μM pyrilamine (nonspecific binding) or the products to be tested was added. Subsequently, 200 μl of the membrane suspension was added to all wells and the microtiter plate was preincubated at 25° C. for 15 min. After this time, 25 μl of 3H-pyrilamine (1.5 nM) was added and the reaction was allowed to incubate for 60 min at 25° C. Then, free radioligand was quickly separated from bound radioligand by vacuum filtration (Multiscreen microplate Screener), performing 10 washes with assay buffer (4° C.). Subsequently 45 μl of scintillation fluid was added to each well and after sealing of the microplate, the radioactivity was quantified in a liquid scintillation counter (TopCount). The graphs of the inhibition curves and calculation the IC50 value were generated with the GraphPad Prism program.
Affinity for histamine H1-receptor of four compounds from the state of the art was determined by binding studies to H1 receptors using the same protocol as described above. The graphs of the inhibition curves and calculation the IC50 value were generated also with the GraphPad Prism program.
The pIC50 is the IC50 on a negative log10 scale, so that one unit is a factor of ten. Consider `CCOCCn1c(C2CCN(CCOc3ccc(CC(=O)O)cc3)CC2)nc2ccccc21` [reference compound], for which the negative logarithm of the IC50 (pIC50) was 5.70.

As to `O=C(O)c1ccc(OCCN2CCC(c3nc4ccccc4n3CCOc3ccccc3)CC2)cc1` [reference compound], the pIC50 was 6.59.

Consider `CCOCCn1c(C2CCN(CCc3ccc(C(C)(C)C)cc3)CC2)nc2ccccc21` [reference compound], for which the pIC50 was 6.37.

`O=C(O)Cc1ccc(OCCN2CCC(c3nc4ccccc4n3CCOc3ccccc3)CC2)cc1` [reference compound]: the pIC50 was 6.57.

The same test, now with this note: compounds of the invention; 3H-pyrilamine 1.5 nM, 60 min at 25° C., CHO cell membranes; read-out: IC50, affinity for human histamine H1-receptor.
As to `CCOCCn1c(C2CCN(CCOCC(=O)OCC)CC2)nc2ccccc21`, the pIC50 was 6.77.

For `CCOCCn1c(C2CCN(CCCO)CC2)nc2ccccc21`, the pIC50 was 7.55.

Take `OCCN1CCC(c2nc3ccccc3n2Cc2ccccn2)CC1`: the pIC50 is 6.76.

In the case of `COC(=O)COCCN1CCC(c2nc3ccccc3n2CCOc2ccccc2)CC1` [drawing 32], the negative logarithm of the IC50 (pIC50) is 6.71.

For the molecule `CCOCCOCCN1CCC(c2nc3ccccc3n2CCOCC)CC1`, the pIC50 is 6.94.

Consider `CCOCCn1c(C2CCN(CCOC)CC2)nc2ccccc21`, for which the pIC50 was 7.03.

For the molecule `CCOCCn1c(C2CCN(CCOC(C)=O)CC2)nc2ccccc21`, the pIC50 was 7.27.

With `CCOCCn1c(C2CCN(CCO)CC2)nc2ccccc21`, the pIC50 was 7.60.

The subject of a further test is histamine papules. Kind of test: Antihistaminic activity: histamine papules in rats (Evans blue extraction). It is filed as in vivo. Particulars: 20 mg/kg oral gavage, intradermal histamine one hour after administration. The procedure: Antihistaminic activity: histamine papules [Mota I., Life Sci., 1963, 12, 917-927; Lefebvre P. et al., C. R. Soc. Biol., 1962, 156, 183-186; and Udaka K. et al., Proc Soc Exp Biol Med, 1970, 133, 1384-1387]
Rats, males and/or females (110-160 g) were used, kept under the usual conditions of temperature and humidity. Previous day, backs of the animals were shaved and since that time (16-24 h) animals were subjected to solid fast but supplied ad libitum with an aqueous solution of sucrose (8%) and sodium chloride (0.2%). The compounds to be tested were dissolved in tartaric acid (Probus 015420) 0.1 M at a concentration of 5 mg/ml and then diluted with water until the concentration to be tested. This suspension or solution of the compound to be tested was administered by rigid oral gavage at 10 mL/kg. The control group received by the same administration mode a solution of tartaric acid (Probus 015420) 0.1 M in water. One hour after oral administration (products, patterns or vehicle), and under light ether anesthesia, two bumps were made on the shaved back by intradermal injection of Histamine hydrochloride (Sigma H-7250) dissolved in sterile saline (10 mg/0.1 mL/papule). Immediately after, dye injection of Evans blue (Merck No. 3169) dissolved in sterile saline (25 mg/kg/4 mL) was administered intravenously. […] The concentration of extracted Evans blue was determined by microplate reader.
`COC(=O)COCCN1CCC(c2nc3ccccc3n2CCOc2ccccc2)CC1` [drawing 37]: the “% inhibition, histamine papules” value came out at 45.03%.
